Some test systems named below: RXF 631; T47D; MDA-MB-231; PC-3; MDA-N; BT-549; Hs-578T; DU-145; 786-0.
Holding throughout (experiment): NCI tumour cell line growth inhibition, 48 h

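Briefly, cells in 96-well plates were exposed to five compound concentrations for 48 h, and endpoints were estimated by linear interpolation. GI50 = concentration required for 50% inhibition of growth.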 Activity calls are given as the source filed them. No stated cut-off is given here; in the data, active = GI50 up to about 1.1 µM and inactive = higher.

As to `O=C(c1ccccc1)c1ccc2c(c1)N=C(c1ccc(Cl)c(Cl)c1)CC(c1ccc3ccccc3c1)N2` (centres undefined), the GI50 in the assay on RXF 631 was > 100 µM (inactive).
In the case of `COc1nc2ccc(Cl)c(C(O)c3ccccc3)c2nc1OC` (centres undefined), the GI50 was 19.8 µM (inactive) in the assay with T47D; 15.4 µM (inactive) in the assay on MDA-MB-231; 26.5 µM (inactive) with PC-3; 11.5 µM (inactive) in the assay with MDA-N; 30.9 µM (inactive) in the assay with BT-549; 14.9 µM (inactive) in the assay on Hs-578T. The GI50 in the assay on DU-145 was 32.3 µM (inactive).
Take `CCCCNC(=O)C1C(=O)N(CCCC)C(=O)/C1=N\N` (centres undefined): the GI50 with RXF 631 and in the assay with 786-0 was > 100 µM (inactive) in each case.
For `c1ccc(Sc2nc(Sc3ccccc3)nc(Sc3ccccc3)n2)cc1`, the GI50 with T47D is 22.3 µM (inactive); with MDA-MB-231, > 100 µM (inactive); with PC-3, 7.11 µM (inactive); in the assay on BT-549, > 100 µM (inactive); in the assay with Hs-578T, 13.3 µM (inactive); in the assay on DU-145 it was 21.1 µM (inactive).
As for `COc1ccc(-c2oc3cc(O)cc(O)c3c(=O)c2OC)cc1` [ERMANIN], the GI50 was 31 µM (inactive) in the assay with T47D; 31.8 µM (inactive) in the assay with MDA-MB-231; 31 µM (inactive) with PC-3; 25.4 µM (inactive) in the assay on MDA-N; 27.2 µM (inactive) in the assay on DU-145.
Take `COc1ccc(C2C(C#N)=C(O)NC(O)=C2C#N)cc1OC`: the GI50 in the assay with RXF 631 was > 100 µM (inactive).
Regarding `c1ccc(P(CCP(c2ccccn2)c2ccccn2)c2ccccc2)cc1`, the GI50 was 0.0435 µM (active) with T47D; 11.9 µM (inactive) in the assay with 786-0; 0.0281 µM (active) with PC-3; 4.57 µM (inactive) with MDA-N; 32.9 µM (inactive) in the assay with BT-549; 7.67 µM (inactive) in the assay with Hs-578T. In addition, the GI50 in the assay with DU-145 is 1.19 µM (inactive).

The values are drawn from ChEMBL document CHEMBL1201862, “PubChem BioAssay data set” (2004).
